Results taken from the supplement of paper PMC8671470.
± gives the standard deviation of the averaged measurements.

Legend:
Conditions in all cases: 72 h
[1] = system: KU-812
How it was run: (§1)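 Fifteen myeloid leukaemia lines were incubated for 72 h at 37 °C with 5% CO2 across five tenfold doses from 1 to 10,000 nM, in duplicate. ATP luminescence was normalised to vehicle and to a positive control at 10 µM and fitted with a four-parameter log-logistic model. The IC50 came from these dose–response fits.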

[2] = system: Mono-Mac-6
How it was run: as §1

[3] = system: BV-173
How it was run: as §1

[4] = system: HL-60
How it was run: as §1

[5] = system: LAMA-84
How it was run: as §1

[6] = system: HEL
How it was run: as §1

[7] = system: KG-1
How it was run: as §1

[8] = system: MV4-11
How it was run: as §1

[9] = system: SHI-1
How it was run: as §1

[10] = system: MOLM-13
How it was run: as §1

[11] = system: NOMO-1
How it was run: as §1

[12] = system: ML-2
How it was run: as §1

[13] = system: KCL-22
How it was run: as §1

[14] = system: THP-1
How it was run: as §1

[15] = system: K-562
How it was run: as §1

[16] = system: HL-60; experiment: area under dose-response curve (viability, 1 nM-10 uM) (fraction (0-1)); higher = more sensitive
How it was run: (§2)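 For each screen, HL-60 cells in RPMI 1640 with 10% FBS carried either DMSO or 100 nM of one of three metabolic inhibitors while the full library was applied at five tenfold concentrations, 1–10,000 nM, in duplicate. Plates were 384-well and were kept 72 h at 37 °C, 5% CO2. Viability, measured by CellTiter-Glo, was normalised to wells with DMSO and with 10 μM proteasome inhibitor. Where area under the curve appears, it was fitted by four-parameter log-logistic models in drc and PharmacoGx.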

[17] = system: KU-812; experiment: cell viability (% survival relative to DMSO control, bortezomib = 0%); higher = less cytotoxic
How it was run: (§3)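 Reported values are percent survival from duplicate wells, averaged. Fifteen myeloid leukaemia cell lines were treated in 384-well plates with compounds at 1, 10, 100, 1000 or 10000 nM for 72 h at 37 °C in 5% CO2. Signals from CellTiter-Glo luminescence were scaled with vehicle as 100% and a 10 µM positive control as 0%.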

[18] = system: Mono-Mac-6; experiment: as above
How it was run: as §3

[19] = system: BV-173; experiment: as above
How it was run: as §3

[20] = system: HL-60; experiment: as above
How it was run: as §3

[21] = system: LAMA-84; experiment: as above
How it was run: as §3

[22] = system: HEL; experiment: as above
How it was run: as §3

[23] = system: SHI-1; experiment: as above
How it was run: as §3

[24] = system: NOMO-1; experiment: as above
How it was run: as §3

[25] = system: ML-2; experiment: as above
How it was run: as §3

[26] = system: KCL-22; experiment: as above
How it was run: as §3

[27] = system: K-562; experiment: as above
How it was run: as §3

[28] = system: HL-60; experiment: cell viability (% survival relative to DMSO control); higher = less cytotoxic
How it was run: as §2

N/C(=N\CCCC(N)C(=O)O)N[N+](=O)[O-] [L-NNA]
Conditions	IC50 (cell viability) [µM]
[1]	> 10
[2]	> 10
[3]	> 10
[4]	> 10
[5]	> 10
[6]	> 10
[7]	> 10
[8]	> 10
[9]	> 10
[10]	> 10
[11]	> 10
[12]	> 10
[13]	> 10
[14]	> 10
[15]	> 10

Conditions	area under dose-response curve, co-treatment: AZD3965 100 nM	area under dose-response curve, co-treatment: DMSO vehicle	area under dose-response curve, co-treatment: GSK2194069 100 nM	area under dose-response curve, co-treatment: pictilisib 100 nM	cell viability, 1 nM [%]	cell viability, 10 nM [%]	cell viability, 100 nM [%]	cell viability, 1000 nM [%]	cell viability, 10000 nM [%]
[16]	< 0.0301	< 0.0301	< 0.0301	< 0.0301	–	–	–	–	–
[17]	–	–	–	–	88.3	92.6	102	87.4	91.8
[18]	–	–	–	–	89.4	95.8	92.1	84.2	91
[19]	–	–	–	–	96.5	103	105	88.9	96.1
[20]	–	–	–	–	96.1	75.4	114	92.4	126
[21]	–	–	–	–	101	105	100	90.9	101
[22]	–	–	–	–	103	98.5	105	91.6	95.6
[23]	–	–	–	–	98.8	95.6	109	96.1	96.7
[24]	–	–	–	–	96.4	99.8	99.4	91.5	92.2
[25]	–	–	–	–	90.7	102	102	93.7	94.5
[26]	–	–	–	–	92.7	107	106	94.8	93.5
[27]	–	–	–	–	104	94.9	117	92.1	102

cell viability [%], [28]
Conditions	0.001 µM	0.01 µM	0.1 µM	1 µM	10 µM
co-treatment: AZD3965 100 nM	104 ± 2.6	105 ± 4.7	106 ± 8.5	98.7 ± 2.9	101.2 ± 0.57
co-treatment: DMSO vehicle	102.6 ± 0.88	99.86 ± 0.89	105 ± 1.6	99.1 ± 3.6	102 ± 7
co-treatment: GSK2194069 100 nM	102 ± 4.6	99.1 ± 1.9	90.4 ± 40	99.9 ± 4	101 ± 2.3
co-treatment: pictilisib 100 nM	97.6 ± 1.3	95.8 ± 8.7	102 ± 14	96.12 ± 0.83	100 ± 14

CC[C@H](C)C(=O)O[C@H]1C[C@@H](C)C=C2C=C[C@H](C)[C@H](CC[C@@H]3C[C@@H](O)CC(=O)O3)[C@H]21 [Lovastatin]
Conditions	IC50 (cell viability) [µM]
[1]	> 10
[2]	> 10
[3]	> 10
[4]	> 10
[5]	> 10
[6]	> 10
[7]	> 10
[8]	> 10
[9]	> 10
[10]	> 10
[11]	> 10
[12]	> 10
[13]	> 10
[14]	> 10
[15]	> 10

Conditions	area under dose-response curve, co-treatment: AZD3965 100 nM	area under dose-response curve, co-treatment: DMSO vehicle	area under dose-response curve, co-treatment: GSK2194069 100 nM	area under dose-response curve, co-treatment: pictilisib 100 nM	cell viability, 1 nM [%]	cell viability, 10 nM [%]	cell viability, 100 nM [%]	cell viability, 1000 nM [%]	cell viability, 10000 nM [%]
[16]	< 0.0301	< 0.0301	< 0.0301	0.0554	–	–	–	–	–
[17]	–	–	–	–	102	96.4	94	87.2	84
[18]	–	–	–	–	97.4	101	95.7	96.8	92.2
[19]	–	–	–	–	109	94.6	95.3	98.7	79.1
[20]	–	–	–	–	96.8	113	101	101	102
[21]	–	–	–	–	88.8	103	104	92.3	90.9
[22]	–	–	–	–	101	87.8	114	92.6	86.3
[23]	–	–	–	–	97.5	97.6	104	93.8	92.5
[24]	–	–	–	–	101	91.9	97.2	93.6	90.7
[25]	–	–	–	–	108	105	111	104	102
[26]	–	–	–	–	93.6	67.8	114	98.8	95.4
[27]	–	–	–	–	108	98.9	101	99.3	88.4

cell viability [%], [28]
Conditions	0.001 µM	0.01 µM	0.1 µM	1 µM	10 µM
co-treatment: AZD3965 100 nM	92.4 ± 13	104.3 ± 0.46	101 ± 8.2	98.2 ± 4.4	94.1 ± 4.6
co-treatment: DMSO vehicle	96.8 ± 1.3	102 ± 4.3	101 ± 4.2	96.5 ± 3.8	95.5 ± 2.6
co-treatment: GSK2194069 100 nM	104 ± 5.5	107 ± 2.7	104 ± 4.1	102 ± 1.6	98.48 ± 0.87
co-treatment: pictilisib 100 nM	98.2 ± 4.6	105 ± 0.52	98.1 ± 9.3	94.1 ± 12	75.54 ± 0.27
